# In US20090239840A1, “AMINO SUBSTITUTED DIARYL[a,d]CYCLOHEPTENE ANALOGS AS [sequence] AGONISTS AND METHODS OF TREATMENT OF NEUROPSYCHIATRIC DISORDERS” (ACADIA PHARMACEUTICALS, INC., priority 2003, published 2009):
# Where two headings read alike, the source gives them in different places.
# Legend:
# CYP 2C9 = CYP 2C9 (Homo sapiens, UniProt P11712); test: CYP inhibition, 2C9; type: in vitro ADME
# CYP 1A2 = target: T1, CYP 1A2 (Homo sapiens, UniProt P05177); test: CYP inhibition, 1A2; type: in vitro ADME
# T1 sequence (P05177 1-516): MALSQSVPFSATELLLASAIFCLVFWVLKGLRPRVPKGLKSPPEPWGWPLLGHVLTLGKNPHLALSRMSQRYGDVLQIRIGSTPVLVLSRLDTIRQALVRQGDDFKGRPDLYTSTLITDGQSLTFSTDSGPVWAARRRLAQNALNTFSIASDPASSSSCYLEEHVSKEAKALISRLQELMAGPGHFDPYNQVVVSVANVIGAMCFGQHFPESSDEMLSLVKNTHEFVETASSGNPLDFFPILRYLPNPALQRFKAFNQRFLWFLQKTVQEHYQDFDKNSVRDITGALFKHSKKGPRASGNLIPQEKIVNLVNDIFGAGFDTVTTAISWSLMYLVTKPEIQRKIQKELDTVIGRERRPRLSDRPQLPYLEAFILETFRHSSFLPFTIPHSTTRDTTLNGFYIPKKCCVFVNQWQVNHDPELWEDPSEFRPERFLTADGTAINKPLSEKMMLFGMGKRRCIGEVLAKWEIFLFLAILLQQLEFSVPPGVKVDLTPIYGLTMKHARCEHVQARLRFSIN
# M1 receptor = target: T2, M1 receptor (Homo sapiens, UniProt P11229); test: Receptor profile, M1 agonist activity; details: for Emax: read-out: M1 intrinsic activity %
# T2 sequence (P11229 1-460): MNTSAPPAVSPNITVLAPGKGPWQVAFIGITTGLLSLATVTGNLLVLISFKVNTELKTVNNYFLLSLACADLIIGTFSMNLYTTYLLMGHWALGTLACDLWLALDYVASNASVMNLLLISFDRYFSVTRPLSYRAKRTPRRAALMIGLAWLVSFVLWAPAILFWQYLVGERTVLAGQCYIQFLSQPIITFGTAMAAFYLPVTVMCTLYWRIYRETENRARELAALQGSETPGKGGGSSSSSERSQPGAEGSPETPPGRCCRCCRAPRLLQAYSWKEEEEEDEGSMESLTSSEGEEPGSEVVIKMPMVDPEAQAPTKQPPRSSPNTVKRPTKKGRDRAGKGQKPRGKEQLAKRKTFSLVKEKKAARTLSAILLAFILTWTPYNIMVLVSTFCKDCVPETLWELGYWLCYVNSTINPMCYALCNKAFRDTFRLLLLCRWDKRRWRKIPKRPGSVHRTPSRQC
# Source text: (§3) Intrinsic activity was normalized to carbachol (M1) or pergolide (D2). For those ligands devoid of agonist activity, the values shown are pKi determined using [3H]raclopride.
# D2 receptor = D2 receptor (Homo sapiens, UniProt P14416); test: Receptor profile, D2 agonist activity; details: for Emax: read-out: D2 intrinsic activity %; for D2 intrinsic activity, in words: devoid of agonist activity
# Sequence of D2 receptor (P14416 whole entry): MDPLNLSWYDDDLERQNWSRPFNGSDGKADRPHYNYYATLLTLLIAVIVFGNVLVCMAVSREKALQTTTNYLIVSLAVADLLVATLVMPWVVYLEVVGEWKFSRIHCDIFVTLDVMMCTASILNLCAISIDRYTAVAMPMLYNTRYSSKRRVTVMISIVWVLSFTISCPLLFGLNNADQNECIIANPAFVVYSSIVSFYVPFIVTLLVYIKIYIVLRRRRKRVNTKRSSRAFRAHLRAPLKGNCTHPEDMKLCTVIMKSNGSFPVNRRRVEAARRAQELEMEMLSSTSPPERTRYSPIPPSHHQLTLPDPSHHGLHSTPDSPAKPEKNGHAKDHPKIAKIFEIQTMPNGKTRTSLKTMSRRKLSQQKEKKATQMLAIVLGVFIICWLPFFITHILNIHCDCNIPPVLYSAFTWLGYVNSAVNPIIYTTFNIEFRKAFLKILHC
# Source text: as §3
# CYP 3A4 = CYP 3A4 (Homo sapiens, UniProt P08684); test: biochemical
# Sequence of CYP 3A4 (P08684 whole entry): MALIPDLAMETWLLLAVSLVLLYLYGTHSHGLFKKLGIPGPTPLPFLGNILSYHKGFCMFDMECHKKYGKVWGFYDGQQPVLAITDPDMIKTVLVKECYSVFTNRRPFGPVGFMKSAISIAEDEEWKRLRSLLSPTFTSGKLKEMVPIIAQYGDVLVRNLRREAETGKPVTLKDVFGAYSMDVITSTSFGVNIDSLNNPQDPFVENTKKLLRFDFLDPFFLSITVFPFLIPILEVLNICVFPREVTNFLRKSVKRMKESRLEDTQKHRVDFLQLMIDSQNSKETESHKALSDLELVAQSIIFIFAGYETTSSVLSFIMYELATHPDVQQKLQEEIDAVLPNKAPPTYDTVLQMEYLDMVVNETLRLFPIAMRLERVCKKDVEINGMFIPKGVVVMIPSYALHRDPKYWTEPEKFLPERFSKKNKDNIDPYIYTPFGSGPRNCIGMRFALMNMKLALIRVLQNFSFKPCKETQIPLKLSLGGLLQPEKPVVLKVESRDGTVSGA
# Experimental: The compounds listed in Table 4 were profiled in a panel of in vitro assays for assessment of cardiovascular (hERG), drug-drug interaction (CYP inhibition), and mutagenic (Ames) liability. Microsomal stability was also determined by measuring both rat and human microsomal clearance.
# novel object recognition = test: Novel object recognition (NOR) assay; type: in vivo; details: mice; for NOR - 60 minutes post training / NOR - 120 minutes post training: dose approx. ID75 in MK-801 hyperactivity assay
# Experimental: Salts of the compounds were administered to mice at one hour post-training (a time-point at which animals normally behaviorally discriminate between novel and familiar objects) and two hours post-training (a time-point at which these animals normally no longer discriminate between objects). Doses were selected to correspond to the approximate ID75 value in the MK-801 hyperactivity assay.
# [1] = test system: hyperactivity induced by MK-801; test: MK-801 induced hyperactivity mouse model; type: in vivo; details: mice, salts of the compounds
# Experimental: (§1) Five of the compounds listed in Table 2 were tested in an in vivo assay predictive of antipsychotic activity. Salts of these compounds where administered to mice having hyperactivity induced by amphetamine or MK-801 administration. The compounds were administered both subcutaneously (sc) and orally (po).
# Ames mutagenesis assay = type: cell-based
# Rat microsomal clearance = type: in vitro ADME; details: rat microsomes
# [2] = Human microsomal clearance; type: in vitro ADME; details: human microsomes
# [3] = test system: hyperactivity induced by amphetamine; test: Amphetamine induced hyperactivity mouse model; type: in vivo; details: mice, salts of the compounds
# Experimental: as §1
# hERG = hERG (Homo sapiens, UniProt Q12809); test: hERG assay
# Sequence of hERG (Q12809 whole entry): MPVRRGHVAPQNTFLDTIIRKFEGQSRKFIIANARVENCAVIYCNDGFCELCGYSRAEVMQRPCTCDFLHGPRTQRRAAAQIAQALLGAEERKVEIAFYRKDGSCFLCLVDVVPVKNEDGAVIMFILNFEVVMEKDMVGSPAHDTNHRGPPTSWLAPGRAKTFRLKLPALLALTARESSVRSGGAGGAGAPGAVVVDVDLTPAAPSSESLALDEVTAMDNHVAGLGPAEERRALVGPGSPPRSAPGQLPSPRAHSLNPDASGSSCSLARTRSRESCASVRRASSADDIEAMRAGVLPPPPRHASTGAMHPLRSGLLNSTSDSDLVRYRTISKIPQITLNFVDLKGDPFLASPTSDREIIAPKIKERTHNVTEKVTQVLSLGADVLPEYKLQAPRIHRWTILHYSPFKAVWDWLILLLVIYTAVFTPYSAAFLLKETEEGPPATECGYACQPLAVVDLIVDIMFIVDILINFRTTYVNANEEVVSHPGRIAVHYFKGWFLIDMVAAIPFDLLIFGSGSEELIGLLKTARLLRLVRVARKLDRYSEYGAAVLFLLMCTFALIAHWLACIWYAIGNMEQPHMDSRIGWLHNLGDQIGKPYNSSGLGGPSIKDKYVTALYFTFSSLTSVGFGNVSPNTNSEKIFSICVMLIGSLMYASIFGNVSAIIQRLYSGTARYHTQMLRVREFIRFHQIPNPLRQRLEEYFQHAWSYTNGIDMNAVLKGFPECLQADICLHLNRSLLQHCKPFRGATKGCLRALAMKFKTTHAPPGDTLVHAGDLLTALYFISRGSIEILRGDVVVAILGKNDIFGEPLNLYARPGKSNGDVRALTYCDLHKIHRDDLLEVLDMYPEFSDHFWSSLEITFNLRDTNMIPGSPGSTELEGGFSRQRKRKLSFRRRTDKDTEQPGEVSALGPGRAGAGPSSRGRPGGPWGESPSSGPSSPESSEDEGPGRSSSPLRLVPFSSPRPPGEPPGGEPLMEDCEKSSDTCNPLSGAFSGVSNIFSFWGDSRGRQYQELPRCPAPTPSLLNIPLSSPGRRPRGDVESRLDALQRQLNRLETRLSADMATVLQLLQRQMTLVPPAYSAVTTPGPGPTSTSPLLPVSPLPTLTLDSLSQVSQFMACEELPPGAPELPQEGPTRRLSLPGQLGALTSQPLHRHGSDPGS
# 5-HT2A receptor = 5-HT2A receptor (Homo sapiens, UniProt P28223); test: Receptor profile, 5-HT2A inverse agonism; type: cell-based; details: negative log of the inhibitory IC50 (inverse agonism); read-out: 5-HT2A pIEC50 (converted)
# Sequence of 5-HT2A receptor (P28223 whole entry): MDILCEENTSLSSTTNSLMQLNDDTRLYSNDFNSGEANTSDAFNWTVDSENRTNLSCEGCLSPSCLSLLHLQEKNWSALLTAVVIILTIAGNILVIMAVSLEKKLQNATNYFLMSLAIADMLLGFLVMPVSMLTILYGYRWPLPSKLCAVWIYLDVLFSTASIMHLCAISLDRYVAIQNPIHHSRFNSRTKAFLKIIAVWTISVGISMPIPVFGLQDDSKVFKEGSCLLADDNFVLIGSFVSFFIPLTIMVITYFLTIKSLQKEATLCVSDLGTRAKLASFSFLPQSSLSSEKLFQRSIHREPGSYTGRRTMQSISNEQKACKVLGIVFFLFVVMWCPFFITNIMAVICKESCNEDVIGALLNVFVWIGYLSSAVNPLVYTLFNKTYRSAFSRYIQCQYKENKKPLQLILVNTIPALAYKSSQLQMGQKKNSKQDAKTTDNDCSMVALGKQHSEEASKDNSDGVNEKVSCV
# CYP 2D6 = CYP 2D6 (Homo sapiens, UniProt P10635); test: CYP inhibition, 2D6; type: in vitro ADME
# Sequence of CYP 2D6 (P10635 whole entry): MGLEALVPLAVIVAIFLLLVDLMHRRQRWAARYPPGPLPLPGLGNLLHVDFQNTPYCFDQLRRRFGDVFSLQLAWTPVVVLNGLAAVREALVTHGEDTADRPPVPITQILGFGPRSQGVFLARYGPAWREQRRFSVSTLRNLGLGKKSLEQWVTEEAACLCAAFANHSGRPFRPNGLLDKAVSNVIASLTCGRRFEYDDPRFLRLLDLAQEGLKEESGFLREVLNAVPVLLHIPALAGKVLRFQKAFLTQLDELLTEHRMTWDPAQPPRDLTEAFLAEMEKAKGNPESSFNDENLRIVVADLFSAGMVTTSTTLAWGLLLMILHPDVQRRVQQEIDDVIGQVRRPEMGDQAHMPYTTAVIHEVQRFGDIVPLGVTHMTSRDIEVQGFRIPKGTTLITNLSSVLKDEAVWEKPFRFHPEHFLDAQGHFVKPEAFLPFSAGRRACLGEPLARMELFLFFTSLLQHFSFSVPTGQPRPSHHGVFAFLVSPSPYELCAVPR
# muscarinic M2 receptor = target: T3, muscarinic M2 receptor (Homo sapiens, UniProt P08172); test: R-SAT functional screen, M2; type: cell-based; details: R-SAT; for Emax: read-out: M2 eff (efficacy); for EC50: read-out: M2 pEC50 (converted)
# T3 construct: expressed in transfected cells
# T3 sequence (P08172 1-466): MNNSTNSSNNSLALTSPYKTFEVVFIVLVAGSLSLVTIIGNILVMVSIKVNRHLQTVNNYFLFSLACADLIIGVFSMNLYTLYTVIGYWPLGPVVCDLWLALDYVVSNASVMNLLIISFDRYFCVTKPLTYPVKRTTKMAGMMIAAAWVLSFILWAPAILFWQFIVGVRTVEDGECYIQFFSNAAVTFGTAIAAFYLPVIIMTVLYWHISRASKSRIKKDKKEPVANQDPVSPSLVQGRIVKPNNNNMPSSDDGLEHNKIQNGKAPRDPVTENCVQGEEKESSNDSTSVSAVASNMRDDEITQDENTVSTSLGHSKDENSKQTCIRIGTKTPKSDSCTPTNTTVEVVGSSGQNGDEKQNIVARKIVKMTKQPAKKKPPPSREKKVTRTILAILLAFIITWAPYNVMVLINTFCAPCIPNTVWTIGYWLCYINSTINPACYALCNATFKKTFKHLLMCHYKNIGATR
# Method in brief: (§2)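 Receptor Selection and Amplification Technology (R-SAT) functional cell assay at M1, M2, M3 receptors. Values reported as efficacy (eff) and potency as pEC50.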
# CYP 2C19 = CYP 2C19 (Homo sapiens, UniProt P33261); test: CYP inhibition, 2C19; type: in vitro ADME
# Sequence of CYP 2C19 (P33261 whole entry): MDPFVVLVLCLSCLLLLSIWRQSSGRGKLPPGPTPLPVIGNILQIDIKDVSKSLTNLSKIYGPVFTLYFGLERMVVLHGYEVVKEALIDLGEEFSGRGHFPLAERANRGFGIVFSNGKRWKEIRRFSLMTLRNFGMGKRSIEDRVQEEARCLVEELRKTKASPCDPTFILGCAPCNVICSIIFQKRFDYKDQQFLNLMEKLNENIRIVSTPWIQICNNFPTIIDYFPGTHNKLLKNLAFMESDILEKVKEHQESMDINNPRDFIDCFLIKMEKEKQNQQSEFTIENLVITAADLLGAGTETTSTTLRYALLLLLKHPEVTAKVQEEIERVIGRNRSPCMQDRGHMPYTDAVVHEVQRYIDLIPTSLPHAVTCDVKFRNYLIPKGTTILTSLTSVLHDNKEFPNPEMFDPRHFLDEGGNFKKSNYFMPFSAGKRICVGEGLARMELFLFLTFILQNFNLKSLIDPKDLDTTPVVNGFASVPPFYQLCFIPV
# muscarinic M3 receptor = target: T4, muscarinic M3 receptor (Homo sapiens, UniProt P20309); test: R-SAT functional screen, M3; type: cell-based
# T4 construct: expressed in transfected cells
# T4 sequence (P20309 whole entry): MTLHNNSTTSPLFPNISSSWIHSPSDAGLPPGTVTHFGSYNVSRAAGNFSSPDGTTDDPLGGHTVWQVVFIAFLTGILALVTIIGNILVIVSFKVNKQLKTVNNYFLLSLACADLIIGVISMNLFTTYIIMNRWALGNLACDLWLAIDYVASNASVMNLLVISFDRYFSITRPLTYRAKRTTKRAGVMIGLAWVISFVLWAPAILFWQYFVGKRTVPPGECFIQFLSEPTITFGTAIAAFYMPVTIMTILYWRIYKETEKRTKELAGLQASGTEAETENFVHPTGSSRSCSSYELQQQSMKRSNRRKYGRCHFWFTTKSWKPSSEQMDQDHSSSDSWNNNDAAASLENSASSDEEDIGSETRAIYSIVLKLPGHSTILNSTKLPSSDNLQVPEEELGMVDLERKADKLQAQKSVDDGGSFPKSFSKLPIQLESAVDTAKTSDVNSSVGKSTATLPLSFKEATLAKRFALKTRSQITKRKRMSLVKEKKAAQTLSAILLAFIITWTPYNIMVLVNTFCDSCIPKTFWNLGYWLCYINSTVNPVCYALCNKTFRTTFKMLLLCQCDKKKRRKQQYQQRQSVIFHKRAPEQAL
# Source text: The term “modulate” refers to the ability of a compound disclosed herein to alter the function of a muscarinic receptor. A modulator may activate the activity of a muscarinic receptor, may activate or inhibit the activity of a muscarinic receptor depending on the concentration of the compound exposed to the muscarinic receptor, or may inhibit the activity of a muscarinic receptor. The term “modulate” also refers to altering the function of a muscarinic receptor by increasing or decreasing the probability that a complex forms between a muscarinic receptor and a natural binding partner. A modulator may increase the probability that such a complex forms between the muscarinic receptor and the natural binding partner, may increase or decrease the probability that a complex forms between the muscarinic receptor and the natural binding partner depending on the concentration of the compound exposed to the muscarinic receptor, and or may decrease the probability that a complex forms between the muscarinic receptor and the natural binding partner. In some embodiments, modulation of the muscarinic receptor may be assessed using Receptor Selection and Amplification Technology (R-SAT) as described in U.S. Pat. No. 5,707,798, the disclosure of which is incorporated herein by reference in its entirety.
# Several compounds disclosed herein were evaluated for activity at muscarinic receptors using Receptor Selection and Amplification Technology (R-SAT) as described in U.S. Pat. No. 5,707,798, the disclosure of which is incorporated herein by reference in its entirety. The efficacy (eff) and potency (expressed as pEC50) of these compounds are presented in Table 1 at M1, M2, and M3 receptors.
# muscarinic M1 receptor = target: T5, muscarinic M1 receptor (Homo sapiens, UniProt P11229); test: R-SAT functional screen, M1; type: cell-based; details: R-SAT
# T5 construct: expressed in transfected cells
# T5 sequence (P11229 1-460): T2 sequence (P11229 1-460)
# Method in brief: as §2
# [4] = to 10 μM (cytotoxicity precluded evaluation of all concentrations)
# Sequence of CYP 2C9 (P11712 whole entry): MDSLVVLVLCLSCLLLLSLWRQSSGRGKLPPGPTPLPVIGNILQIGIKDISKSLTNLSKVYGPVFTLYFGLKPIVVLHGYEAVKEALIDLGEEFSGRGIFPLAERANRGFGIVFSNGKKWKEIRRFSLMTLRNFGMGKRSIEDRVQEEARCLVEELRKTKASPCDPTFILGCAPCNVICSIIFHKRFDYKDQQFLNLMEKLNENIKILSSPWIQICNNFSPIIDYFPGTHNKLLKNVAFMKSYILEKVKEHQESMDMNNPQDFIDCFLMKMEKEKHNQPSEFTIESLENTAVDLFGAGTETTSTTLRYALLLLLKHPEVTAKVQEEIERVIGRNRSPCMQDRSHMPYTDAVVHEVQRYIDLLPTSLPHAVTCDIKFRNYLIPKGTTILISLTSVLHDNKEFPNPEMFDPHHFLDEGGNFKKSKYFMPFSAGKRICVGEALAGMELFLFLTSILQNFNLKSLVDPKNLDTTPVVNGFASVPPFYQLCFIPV
Compound,IC50 (CYP 2C9),IC50 (CYP 1A2),EC50 (D2 receptor),Emax (D2 receptor),IC50 (CYP 3A4),microsomal CLint (Rat microsomal clearance),microsomal CLint [2],Emax (muscarinic M2 receptor),EC50 (muscarinic M2 receptor),EC50 (M1 receptor),Emax (M1 receptor),NOR Interpretation (novel object recognition),NOR - 60 minutes post training (novel object recognition),NOR - 120 minutes post training (novel object recognition),MK-801 model (ID50 mg/kg po) [1],MK-801 model (ID50 mg/kg sc) [1],Amphetamine model (ID50 mg/kg po) [3],Amphetamine model (ID50 mg/kg sc) [3],IC50 (hERG),IC50 (5-HT2A receptor),other results
"Cc1cccc2c1Oc1ccc(C(F)(F)F)cc1N=C2N1CCNCC1 [4-Methyl-11-(piperazin-1-yl)-8-trifluoromethyl-dibenzo[b,f][1,4]oxazepine]",–,–,–,–,–,–,–,75%,794 nM,316 nM,52%,–,–,–,–,>10 mg/kg,–,–,–,2510 nM,"D2 intrinsic activity, in words (D2 receptor): antagonist"
"Cc1cccc2c1Oc1ccc(F)cc1N=C2N1CCNCC1 [8-Fluoro-4-methyl-11-(piperazin-1-yl)-dibenzo[b,f][1,4]oxazepine]",> 25000 nM,1000 nM,–,–,~1500 nM,247 µL/min/mg,13 µL/min/mg,50%,1580 nM,126 nM,56%,procognitive,retained,retained,0.6 mg/kg,1.4 mg/kg,2.8 mg/kg,3.3 mg/kg,2300 nM,126 nM,"D2 intrinsic activity, in words (D2 receptor): antagonist; Ames (Ames mutagenesis assay; [4]): Neg.; IC50 (CYP 2D6): > 25000 nM; IC50 (CYP 2C19): > 25000 nM"
"Fc1ccc2c(c1)N=C(N1CCNCC1)c1ccccc1O2 [8-Fluoro-11-(piperazin-1-yl)-dibenzo[b,f][1,4]oxazepine]",–,–,15.8 nM,73%,–,–,–,48%,2510 nM,316 nM,39%,–,–,–,–,–,–,–,–,501 nM,–
"Clc1ccc2c(c1)N=C(N1CCNCC1)c1ccccc1N2 [N-desmethylclozapine, reference compound]",–,–,–,–,–,–,–,–,–,–,–,no effect,retained,not retained,1.5 mg/kg,3.5 mg/kg,>10 mg/kg,5.2 mg/kg,–,–,Ames (Ames mutagenesis assay): Neg.

# The next lines start with results.
IC50 (CYP 2C9),IC50 (CYP 1A2),EC50 (D2 receptor),Emax (D2 receptor),IC50 (CYP 3A4),microsomal CLint (Rat microsomal clearance),microsomal CLint [2],Emax (muscarinic M2 receptor),EC50 (muscarinic M2 receptor),Compound,EC50 (M1 receptor),Emax (M1 receptor),NOR Interpretation (novel object recognition),NOR - 60 minutes post training (novel object recognition),NOR - 120 minutes post training (novel object recognition),MK-801 model (ID50 mg/kg po) [1],MK-801 model (ID50 mg/kg sc) [1],Amphetamine model (ID50 mg/kg po) [3],Amphetamine model (ID50 mg/kg sc) [3],IC50 (hERG),IC50 (5-HT2A receptor),other results
> 10000 nM,> 10000 nM,12.6 nM,33%,~4000 nM,383 µL/min/mg,21 µL/min/mg,113%,1260 nM,"Clc1ccc2c(c1)N=C(N1CCNCC1)c1ccccc1C2 [3-Chloro-6-piperazin-1-yl-11H-dibenzo[b,e]azepine]",100 nM,62%,no effect,retained,not retained,1.6 mg/kg,0.7 mg/kg,2.8 mg/kg,3.6 mg/kg,1200 nM,31.6 nM,Ames (Ames mutagenesis assay; [4]): Neg.; IC50 (CYP 2D6): > 10000 nM; IC50 (CYP 2C19): > 10000 nM
–,–,50.1 nM,34%,–,–,–,70%,1260 nM,"Brc1ccc2c(c1)N=C(N1CCNCC1)c1ccccc1O2 [8-Bromo-11-(piperazin-1-yl)-dibenzo[b,f][1,4]oxazepine]",398 nM,36%,–,–,–,–,–,–,–,–,25.1 nM,–
> 10000 nM,1800 nM,–,–,1800 nM,27 µL/min/mg,16 µL/min/mg,71%,631 nM,"Cc1cccc2c1Oc1ccc(Cl)cc1N=C2N1CCNCC1 [8-Chloro-4-methyl-11-(piperazin-1-yl)-dibenzo[b,f][1,4]oxazepine]",200 nM,71%,procognitive,retained,retained,1.9 mg/kg,0.5 mg/kg,>10 mg/kg,3.4 mg/kg,2000 nM,31.6 nM,"D2 intrinsic activity, in words (D2 receptor): antagonist; Ames (Ames mutagenesis assay; to 5 μM (cytotoxicity precluded evaluation of all concentrations)): Neg.; IC50 (CYP 2D6): > 10000 nM; IC50 (CYP 2C19): > 10000 nM"
–,–,–,–,–,–,–,159%,1580 nM,"CC1CN(C2=Nc3cc(Cl)ccc3Nc3ccccc32)CCN1 (centres unmarked) [8-Chloro-11-(3-methyl-piperazin-1-yl)-5H-dibenzo[b,e][1,4]diazepine]",–,–,–,–,–,–,–,–,–,–,–,M3 eff (efficacy) (muscarinic M3 receptor): 19; Emax (muscarinic M1 receptor; read-out: M1 eff (efficacy)): 28%; EC50 (muscarinic M1 receptor; read-out: M1 pEC50 (converted)): 100 nM
